Measurements published in US9226912B2, “Acetyltanshinone IIA (ATA) as anticancer agent” (Nanyang Technological University, priority 2011, dated 2016).

Columns and labels:
ERα in BT474 cells = target: T1, ERα in BT474 cells (Homo sapiens, UniProt P03372); assay: ERα protein level by Western blotting; type: cell-based; conditions: 6 μM ATA or 1 μM fulvestrant
T1 construct: endogenous in cells; host or cells: BT474 human breast cancer cells
Procedure: Cells were treated with 6 μM ATA or 1 μM fulvestrant for indicated times and analyzed by Western blotting.

[1] = tested on: Bax and cytochrome c in MDA-MB-435 cells; assay: Bax translocation and cytochrome c release, cell fractionation Western blot and immunofluorescence; type: cell-based, human; conditions: 20 μM PG, 5 μM ATA, 24 h
Procedure: The concentration of ATA and PG were 5 μM and 20 μM, respectively. […] Scale bar=10 μm.
The value of CY/MT represents the ratio of integrated band intensity of cytosol fraction (CY) over corresponding integrated band intensity of mitochondrial fraction (MT). The ratio was normalized by the control group. Two proteins were used as internal markers to judge the quality of cell fractionation experiment: Cox IV for mitochondria and β-tubulin mainly for cytosol.
The subcellular localization changes of Bax and cytochrome c during ATA-induced apoptosis were first examined using immunofluorescence staining.
(§1) It was further tested, whether PG could prevent ROS generation after ATA treatment.

ROS in MDA-MB-435 cells = assay: ROS generation and its prevention by PG; type: cell-based, human; conditions: pre-treating cells with 20 μM PG
Procedure: (A) PG prevented ATA-induced cell death. Three concentrations of PG were tested for their protective effects on ATA-induced cell death. The cell viability was measured by SRB assay. (* p<0.01). (B) PG protected ROS generation caused by ATA treatment. […] All the experiments were performed at least three times. The results presented in this figure are the average of three experiments. Error bar represents standard deviation. Scale bar=20 μm.
as §1

MCF-7/HER2 cells = assay: Growth inhibition of HER2 over-expressing cells at 72 h; type: cell-based; conditions: paclitaxel 1×10^−3 μM to 10 μM; ATA 0.78 μM to 6.25 μM
Description: The efficacy of ATA on MCF-7 cells with over-expressed HER2 protein was investigated.

MCF-7 cells = assay: Combinatorial effect of ATA with paclitaxel, MTT assay; type: cell-based; conditions: Homo sapiens, MCF7, paclitaxel alone at 1 nM, read-out: cell growth inhibition rate
Procedure: The effect was determined by measuring the rates of cell growth inhibition using MTT assay. (* p<0.01, compared with cells treated with either paclitaxel alone or ATA alone).
The inventors of the present invention have shown for the first time that ATA can increase the cytotoxic effect of paclitaxel. In the tests (FIG. 16) with five concentrations of ATA at 10, 5, 2.5, 1.25, 0.625 μM and five concentrations of paclitaxel at 1000, 100, 10, 1, 0.1 nM were used.

ESR1 mRNA in MCF-7 cells = assay: Real-time PCR of ESR1 mRNA level; conditions: 100 pM estrogen plus 6 μM compound, 24 h
Procedure: MCF-7 cells cultured in the charcoal-stripped medium were used as control for the 0 h sample.

[2] = tested on: GREB1 mRNA in MCF-7 cells; assay: Real-time PCR of GREB1 mRNA level; conditions: 100 pM estrogen plus 6 μM compound, 24 h, normal medium
Procedure: In order to do so, the mRNA level of a non-ER regulated gene GAPDH was measured and used as a reference. MCF-7 cells cultured in the charcoal-stripped medium were used as a control.

HeLa cells = assay: ATA-induced cell death by cell counting under a microscope; type: cell-based; conditions: 2 μM z-VAD-fmk pre-treatment 2 h, then 10 or 20 μM ATA, 24 h and 48 h
Procedure: HeLa cells were treated with 10 μM ATA for 12, 24, 36, and 48 h. The β-tubulin protein was probed as a loading control. […] HeLa cells were pre-treated with 2 μM pan-caspase inhibitor (z-VAD-fmk) for 2 h before ATA addition. Then 10 μM or 20 μM ATA were added. After 24 h and 48 h treatment, the number of died cells was counted under a microscope. (* p<0.01, compared with cells treated with ATA only). Control: cells without any treatment.
Overexpression of Bcl-2 inhibited ATA-induced cell death. HeLa cells transfected with either yellow fluorescent protein (YFP) (vector control) or YFP-Bcl-2 (Bcl-2) were treated with ATA at 10 or 20 μM. The percentage of cell death from YFP-positive cells was determined by cell counting under a fluorescence microscope. (* p<0.01, compared with vector control groups).
The inventors of the present invention have shown for the first time that ATA can activate the apoptotic pathway in cancer cells. […]
HeLa cells transfected with YFP-Bcl-2 or YFP only were treated with 10 μM or 20 μM ATA. After 24 h or 48 h treatment, the percentage of cell death in each sample was calculated by counting the numbers of fluorescence-positive cells either live (attached with a normal cell morphology) or dead (detached with a shrunk morphology) under a fluorescence microscope. […]

T1 sequence (P03372 whole entry): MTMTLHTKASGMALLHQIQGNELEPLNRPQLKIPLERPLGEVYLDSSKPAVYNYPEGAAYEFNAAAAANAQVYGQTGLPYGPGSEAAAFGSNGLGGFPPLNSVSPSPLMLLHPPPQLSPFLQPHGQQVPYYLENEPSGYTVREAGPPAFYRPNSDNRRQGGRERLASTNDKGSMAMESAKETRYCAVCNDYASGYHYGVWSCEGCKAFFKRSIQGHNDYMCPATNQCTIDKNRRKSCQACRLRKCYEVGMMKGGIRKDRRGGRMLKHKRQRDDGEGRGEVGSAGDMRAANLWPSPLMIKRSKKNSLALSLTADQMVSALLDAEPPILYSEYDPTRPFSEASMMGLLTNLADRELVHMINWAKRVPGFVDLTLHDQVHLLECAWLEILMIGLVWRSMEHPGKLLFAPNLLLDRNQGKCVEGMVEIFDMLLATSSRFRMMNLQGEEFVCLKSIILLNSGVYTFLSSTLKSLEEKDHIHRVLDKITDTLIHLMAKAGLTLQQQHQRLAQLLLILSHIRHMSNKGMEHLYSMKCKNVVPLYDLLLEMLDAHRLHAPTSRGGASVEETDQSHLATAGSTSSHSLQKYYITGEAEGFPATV

C[C@]12CC[C@@H]3c4ccc(O)cc4C[C@@H](CCCCCCCCC[S+]([O-])CCCC(F)(F)C(F)(F)F)[C@H]3[C@@H]1CC[C@@H]2O (stereo partly drawn) [Fulvestrant, fulvestrant, reference compound]
level of ERα (ERα in BT474 cells): only reduced ERα

CCCOC(=O)c1cc(O)c(O)c(O)c1 [PG, propyl gallate, reference compound]
effect on Bax translocation and cytochrome c release in ATA-treated cells [1]: could effectively prevent
effect on ATA-induced ROS level increase (ROS in MDA-MB-435 cells): completely prevented

CC(=O)O[C@H]1C(=O)[C@@]2(C)[C@H]([C@H](OC(=O)c3ccccc3)[C@]3(O)C[C@H](OC(=O)[C@H](O)[C@@H](NC(=O)c4ccccc4)c4ccccc4)C(C)=C1C3(C)C)[C@]1(OC(C)=O)CO[C@@H]1C[C@@H]2O [paclitaxel, reference compound]
sensitivity of MCF-7/HER2 cells compared with MCF-7 cells (MCF-7/HER2 cells): more resistance to paclitaxel than MCF-7 cells
inhibition at 0.001 µM (MCF-7 cells): ~40%

CC/C(=C(\c1ccccc1)c1ccc(OCCN(C)C)cc1)c1ccccc1 [tamoxifen, reference compound]
level of ESR1 mRNA over control (ESR1 mRNA in MCF-7 cells; charcoal-stripped medium): about 70%
level of ESR1 mRNA over control (ESR1 mRNA in MCF-7 cells; normal medium): only slightly decreased
GREB1 level of the control [2]: comparable

z-VAD-fmk [reference compound]
effect on ATA-induced cell death (HeLa cells): could be inhibited
